# From patent US7141252B2, “Composition for the treatment of burns, sunburns, abrasions, ulcers and cutaneous irritation” (priority 2003, dated 2006)
# Test system: burns
# Assay: Treating burns with different combinations of the ingredients
# Format: in vivo
# Conditions: topical treatment of burns, comparison of ingredient combinations
smiles,measurement,value
OB(O)O [boric acid],healing of burns,appeared to advance healing without infection but only in a very limited fashion
